Data from patent publication US20050031604A1, “Isolation and purification procedure of vasopeptidase peptide inhibitors” (priority 2002, published 2005).
Non-standard residues stand in square brackets, D forms with d. Residues, ends and D or L forms follow the SMILES beside them. pGlu = O=C1CC[C@@H](C(=O)O)N1

Experiments:
NEP = NEP (Homo sapiens, UniProt P08473); assay: Inhibition of NEP; assay type: biochemical
[1] = target: T1, N site of the ACE (human angiotensin converting enzyme mutant with only the N-terminal active site functional) (Homo sapiens, UniProt P12821, H988K/H992K); assay: Enzymatic assay of inhibition of the N-site of recombinant ACE; assay type: biochemical; conditions: pentapeptide, range stated in words
T1 construct: The two ACE mutants were expressed as full-length proteins; made in house
Experimental: (§1) The wild-type human angiotensin converting enzyme (ACE) and two mutants, containing only one functional active site, were obtained through stable transfection of chinese hamster ovary cells with the ACE encoding cDNA. The two ACE mutants were expressed as full-length proteins, presenting one of the catalytic sites, N- or C-terminal, inactivated by substitution of the zinc binding histidine residues by lysine residues.
(§2) The enzymatic assays were carried out at 25° C. with the substrate Mca-Ala-Ser-Asp-Lys-DpaOH, in a 50 mM Hepes buffer, pH 6.8, containing 200 mM NaCl and 10 μM ZnCl2. The reactions were continuously monitored by determining the raise in fluorescence at 390 nm emission wave length, and excitation at 340 nm, caused by the cleavage of the substrate (S=Km, 40 μM) by ACE, in a fluorimeter Fluorolite 10000 (Dynatech). The bradykinin potentiating peptides (BPPs) (inhibitors, were pre-incubated with the enzyme 90 min before the addition of the substrate.

[2] = system: rat arterial blood pressure; assay: Potentiation of the hypotensive effect of bradykinin in rats; assay type: in vivo; conditions: concentrations of 300 nM
Experimental: The hypotensive potentiating activity effect of bradykinin was tested in normotensive and hypertensive male and female Wistar rats, anesthetized with ethylic ether; a cannulae was introduced in the femoral vein for drug administration and in the femoral artery for blood pressure recording. A Gould polygraph was used coupled to a Statham Gould physiological transducer. The arterial pressure variation values were obtained by integration of the areas delimited by the pressure base line, and by comparing them with the values obtained in the control experiment. Toxin effect tests were carried out in normotensive and hypertensive rats by intra-vital microscopy using the mesenteric circulation. The animals were anesthetized, and their body temperature maintained by a heated plate, while the mesentery was trans-illuminated and observed through lenses coupled to a television camera. The vase diameters of these animals were measured with a micrometric screw. Tested substances were administered by a constant flow peristaltic pump or injected in bolus.
Wistar male rats with a body weight between 180 and 220 g were anesthetized with sodic pentabarbital (Hypnol® Cristalia, 50 mg/kg of body weight, intraperitoneally), while the body temperature was maintained between 36.5° C. and 37° C. by a heated plate. […]

[3] = system: isolated guinea pig ileum; assay: Potentiation of the contractile activity of bradykinin on isolated guinea pig ileum
Experimental: The potentiating activity of the pools of isolated peptides was tested on the contractile activity of bradykinin on smooth muscle, measured using a preparation of isolated guinea pig ileum. Female guinea pigs with a body weight between 160 and 180 g were used. Before starting the assays, the ileum was kept in TYRODE solution at 37° C. for 30 min. One of the ends of the isolated ileum segment, measuring 1.5 to 2.0 cm, was tied to a semi-ring located at the bottom of a glass container with a capacity of 5 mL, containing the TYRODE physiological solution at 37° C. under constant oxygen bubbling through a capillary. The other extremity of the ileum segment was tied to a previously calibrated registering arm. The tension on the arm was of 1 g, and the ileum contractions were recorded by an REC101 recorder (Pharmacia Biotech).
In order to determine the bradykinin potentiating effect of the samples, a log-dose curve of the effect of bradykinin on the ileum was plotted. Bradykinin activity was determined by measuring the contractions of the isolated guinea pig ileum, and the potentiating activity was expressed as a function of the increase in tissue response to a standard dose of bradykinin.
Pools and fractions were assayed individually and were added 30 seconds before the addition of a simple dose of bradykinin. […]

[4] = target: T2, C site of the ACE (human angiotensin converting enzyme mutant with only the C-terminal active site functional) (Homo sapiens, UniProt P12821, H390K/H394K); assay: Enzymatic assay of inhibition of the C-site of recombinant ACE; assay type: biochemical
T2 construct: The two ACE mutants were expressed as full-length proteins; made in house
Experimental: as §1, §2

T2 sequence (P12821 30-1306 H390K/H394K): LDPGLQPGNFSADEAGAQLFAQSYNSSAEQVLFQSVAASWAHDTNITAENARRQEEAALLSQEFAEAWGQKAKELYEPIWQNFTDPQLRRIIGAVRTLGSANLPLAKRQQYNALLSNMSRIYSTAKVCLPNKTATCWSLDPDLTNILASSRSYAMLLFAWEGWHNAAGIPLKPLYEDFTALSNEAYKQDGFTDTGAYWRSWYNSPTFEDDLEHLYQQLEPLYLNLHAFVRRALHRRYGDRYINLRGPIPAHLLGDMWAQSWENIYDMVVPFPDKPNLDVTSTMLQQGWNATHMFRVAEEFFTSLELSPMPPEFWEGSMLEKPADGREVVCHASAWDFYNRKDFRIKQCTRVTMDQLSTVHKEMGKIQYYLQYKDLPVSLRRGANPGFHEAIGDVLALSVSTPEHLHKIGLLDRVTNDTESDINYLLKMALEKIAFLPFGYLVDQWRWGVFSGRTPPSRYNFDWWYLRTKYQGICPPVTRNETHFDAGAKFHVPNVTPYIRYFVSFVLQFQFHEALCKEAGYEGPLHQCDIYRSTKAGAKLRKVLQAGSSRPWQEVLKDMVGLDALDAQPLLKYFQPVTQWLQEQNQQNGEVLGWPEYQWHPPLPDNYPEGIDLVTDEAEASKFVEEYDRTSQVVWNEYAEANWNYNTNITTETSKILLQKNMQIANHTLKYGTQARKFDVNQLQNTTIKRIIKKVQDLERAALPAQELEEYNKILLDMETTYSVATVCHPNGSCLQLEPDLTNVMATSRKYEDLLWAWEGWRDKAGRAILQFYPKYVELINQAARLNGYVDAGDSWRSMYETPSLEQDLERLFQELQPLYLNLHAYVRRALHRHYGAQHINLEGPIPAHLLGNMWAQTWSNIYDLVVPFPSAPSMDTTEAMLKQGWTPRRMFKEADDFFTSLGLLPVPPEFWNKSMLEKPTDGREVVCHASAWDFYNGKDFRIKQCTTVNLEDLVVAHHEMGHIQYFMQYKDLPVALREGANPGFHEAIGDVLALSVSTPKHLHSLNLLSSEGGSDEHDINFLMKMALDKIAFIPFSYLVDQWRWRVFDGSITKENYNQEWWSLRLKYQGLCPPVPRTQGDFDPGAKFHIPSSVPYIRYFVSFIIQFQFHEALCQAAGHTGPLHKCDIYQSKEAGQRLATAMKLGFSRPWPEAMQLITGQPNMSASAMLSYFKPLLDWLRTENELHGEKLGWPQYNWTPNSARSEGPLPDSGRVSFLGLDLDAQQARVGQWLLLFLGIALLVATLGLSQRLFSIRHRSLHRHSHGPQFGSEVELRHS
T1 sequence (P12821 30-1306 H988K/H992K): as the sequence (P12821 30-1306 H390K/H394K) above, with K361H, K365H, H959K, H963K counted along it
Sequence of NEP (P08473 whole entry): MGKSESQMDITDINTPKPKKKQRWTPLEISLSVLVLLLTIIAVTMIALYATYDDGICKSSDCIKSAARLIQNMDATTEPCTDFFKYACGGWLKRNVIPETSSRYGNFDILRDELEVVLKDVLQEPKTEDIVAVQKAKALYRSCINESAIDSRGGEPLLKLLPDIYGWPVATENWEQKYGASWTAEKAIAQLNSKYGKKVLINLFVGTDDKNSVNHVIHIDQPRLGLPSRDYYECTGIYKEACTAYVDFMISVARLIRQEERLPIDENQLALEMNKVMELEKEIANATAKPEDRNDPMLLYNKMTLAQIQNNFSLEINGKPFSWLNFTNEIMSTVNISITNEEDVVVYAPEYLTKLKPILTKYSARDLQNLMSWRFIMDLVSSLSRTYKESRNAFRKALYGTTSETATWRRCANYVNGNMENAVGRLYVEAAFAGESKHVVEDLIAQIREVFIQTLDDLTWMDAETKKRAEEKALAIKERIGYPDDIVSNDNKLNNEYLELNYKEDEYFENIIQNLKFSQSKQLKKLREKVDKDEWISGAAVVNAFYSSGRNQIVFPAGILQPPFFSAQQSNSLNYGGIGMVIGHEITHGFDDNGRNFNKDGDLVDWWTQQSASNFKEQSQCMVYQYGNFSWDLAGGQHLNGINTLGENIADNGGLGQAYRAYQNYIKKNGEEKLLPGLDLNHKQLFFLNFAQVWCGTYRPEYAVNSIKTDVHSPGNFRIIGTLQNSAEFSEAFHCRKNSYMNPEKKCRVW

C[C@H](NC(=O)[C@H](Cc1c[nH]c2ccccc12)NC(=O)[C@H](CCCCN)NC(=O)[C@@H]1CCC(=O)N1)C(=O)N1CCC[C@H]1C(=O)O [<E K W A P, Pyroglutamyl(<E)-Lysine(K)-tryptophane(W)-Alanine(A)-Proline (P)] ([pGlu]KWAP-OH)
Ki (NEP): 50 to 150 µM | Ki for the N site of the ACE [1]: in the μM range | increase in the duration of the hypotensive effect compared to bradykinin alone [2]: 5 fold | potentiation of the hypotensive effect of bradykinin [2]: 60% | concentrations that potentiate the contractile action of bradykinin on isolated guinea pig ileum [3]: 15 to 300 nM | selectivity for the C-site of the ACE ([4]; C site versus N site): not presenting a defined selectivity | Ki for the C site of the ACE ([4]; pentapeptide, range stated in words): in the μM range
